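Protocol summary: plate cells (96-well), add compound at 5 concentrations, incubate 48 h, interpolate endpoints linearly. GI50: concentration for 50% inhibition of growth.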 Activity calls are given as the source filed them. Rule as the data show it: active = GI50 up to about 1.1 µM and inactive = higher.
Experiments:
Test in all cases: growth of human tumour cells (NCI), 48 h
HL-60 = tested on: HL-60
SK-MEL-28 = tested on: SK-MEL-28
COLO 205 = tested on: COLO 205
RPMI-8226 = tested on: RPMI-8226
A498 = tested on: A498
BT-549 = tested on: BT-549
UACC-257 = tested on: UACC-257
MOLT-4 = tested on: MOLT-4
HCT-116 = tested on: HCT-116
SK-MEL-2 = tested on: SK-MEL-2
NCI-H522 = tested on: NCI-H522
SR = tested on: SR
KM12 = tested on: KM12
NCI-H23 = tested on: NCI-H23
SF-295 = tested on: SF-295
IGROV-1 = tested on: IGROV-1
Hs-578T = tested on: Hs-578T
OVCAR-3 = tested on: OVCAR-3
CCRF-CEM = tested on: CCRF-CEM
MCF7 = tested on: MCF7
HOP-92 = tested on: HOP-92
DU-145 = tested on: DU-145
A549 = tested on: A549
HCT-15 = tested on: HCT-15
SNB-19 = tested on: SNB-19
SW-620 = tested on: SW-620
HCC 2998 = tested on: HCC 2998
SNB-75 = tested on: SNB-75
SK-OV-3 = tested on: SK-OV-3
U-251 = tested on: U-251
NCI-H460 = tested on: NCI-H460
T47D = tested on: T47D
OVCAR-4 = tested on: OVCAR-4
CAKI-1 = tested on: CAKI-1
OVCAR-5 = tested on: OVCAR-5
OVCAR-8 = tested on: OVCAR-8
MDA-N = tested on: MDA-N
TK-10 = tested on: TK-10
ACHN = tested on: ACHN
LOX IMVI = tested on: LOX IMVI
MDA-MB-435 = tested on: MDA-MB-435
NCI/ADR-RES = tested on: NCI/ADR-RES
UO-31 = tested on: UO-31
NCI-H226 = tested on: NCI-H226
SF-539 = tested on: SF-539
SN12C = tested on: SN12C
SF-268 = tested on: SF-268
MDA-MB-231 = tested on: MDA-MB-231
HT-29 = tested on: HT-29
UACC-62 = tested on: UACC-62
K562 = tested on: K562
M14 = tested on: M14
786-0 = tested on: 786-0
PC-3 = tested on: PC-3
SK-MEL-5 = tested on: SK-MEL-5
RXF 393 = tested on: RXF 393
EKVX = tested on: EKVX
Malme-3M = tested on: Malme-3M
HOP-62 = tested on: HOP-62

For `CCSc1nc(C)nc2c1sc1nc3ccccc3n12`, the GI50 (HL-60) was > 28100 nM (inactive), the GI50 (SK-MEL-28) was > 100000 nM (inactive) and the GI50 (COLO 205) was > 100000 nM (inactive). For the same molecule, the GI50 (RPMI-8226) was > 100000 nM (inactive), the GI50 (A498) was > 100000 nM (inactive) and the GI50 (BT-549) was > 100000 nM (inactive). For the same molecule, the GI50 (UACC-257) was > 100000 nM (inactive), the GI50 (MOLT-4) was > 100000 nM (inactive) and the GI50 (HCT-116) was > 100000 nM (inactive). For the same molecule, the GI50 (SK-MEL-2) was > 100000 nM (inactive), the GI50 (NCI-H522) was > 100000 nM (inactive) and the GI50 (SR) was > 100000 nM (inactive). The GI50 (KM12) was > 68100 nM (inactive), the GI50 (NCI-H23) was > 100000 nM (inactive) and the GI50 (SF-295) was > 100000 nM (inactive). The GI50 (IGROV-1) was > 100000 nM (inactive), the GI50 (Hs-578T) was 24200 nM (inactive) and the GI50 (OVCAR-3) was > 100000 nM (inactive). The GI50 (CCRF-CEM) was > 100000 nM (inactive), the GI50 (MCF7) was > 100000 nM (inactive) and the GI50 (HOP-92) was > 100000 nM (inactive). For the same molecule, the GI50 (DU-145) was > 100000 nM (inactive), the GI50 (A549) was > 100000 nM (inactive) and the GI50 (HCT-15) was greater than 100000 nM. The GI50 (SNB-19) was > 100000 nM (inactive), the GI50 (SW-620) was > 100000 nM (inactive) and the GI50 (HCC 2998) was > 100000 nM (inactive). For the same molecule, the GI50 (SNB-75) was > 94000 nM (inactive), the GI50 (SK-OV-3) was > 100000 nM (inactive) and the GI50 (U-251) was > 100000 nM (inactive). The GI50 (NCI-H460) was > 100000 nM (inactive), the GI50 (T47D) was > 100000 nM (inactive) and the GI50 (OVCAR-4) was > 78300 nM (inactive). For the same molecule, the GI50 (CAKI-1) was > 100000 nM (inactive), the GI50 (OVCAR-5) was > 100000 nM (inactive) and the GI50 (OVCAR-8) was > 100000 nM (inactive). For the same molecule, the GI50 (MDA-N) was > 100000 nM (inactive), the GI50 (TK-10) was > 100000 nM (inactive) and the GI50 (ACHN) was > 100000 nM (inactive). For the same molecule, the GI50 (LOX IMVI) was > 100000 nM (inactive), the GI50 (MDA-MB-435) was > 100000 nM (inactive) and the GI50 (NCI/ADR-RES) was > 100000 nM (inactive). For the same molecule, the GI50 (UO-31) was > 100000 nM (inactive), the GI50 (NCI-H226) was > 100000 nM (inactive) and the GI50 (SF-539) was > 100000 nM (inactive). For the same molecule, the GI50 (SN12C) was > 100000 nM (inactive), the GI50 (SF-268) was > 100000 nM (inactive) and the GI50 (MDA-MB-231) was > 100000 nM (inactive). The GI50 (HT-29) was > 100000 nM (inactive), the GI50 (UACC-62) was > 100000 nM (inactive) and the GI50 (K562) was > 100000 nM (inactive). For the same molecule, the GI50 (M14) was > 100000 nM (inactive), the GI50 (786-0) was > 100000 nM (inactive) and the GI50 (PC-3) was > 100000 nM (inactive). The GI50 (SK-MEL-5) was > 100000 nM (inactive), the GI50 (RXF 393) was > 100000 nM (inactive) and the GI50 (EKVX) was > 100000 nM (inactive).

In the case of `O[C@]12C=C(c3nccc4c3[nH]c3ccccc34)[C@@H]3CCN(CCCC/C=C\CC1)C[C@@]31CC3/C=C\CCCCN3[C@H]12` (stereo not given in full), the GI50 (HL-60) was 248 nM (active), the GI50 (SK-MEL-28) was 615 nM (active) and the GI50 (Malme-3M) was 509 nM (active). For the same molecule, the GI50 (COLO 205) was 344 nM (active), the GI50 (RPMI-8226) was 310 nM (active) and the GI50 (A498) was 364 nM (active). The GI50 (BT-549) was 804 nM (active), the GI50 (UACC-257) was 652 nM (active) and the GI50 (HOP-62) was 223 nM (active). The GI50 (MOLT-4) was 138 nM (active), the GI50 (HCT-116) was 243 nM (active) and the GI50 (SK-MEL-2) was 244 nM (active). The GI50 (NCI-H522) was 263 nM (active), the GI50 (SR) was 311 nM (active) and the GI50 (KM12) was 387 nM (active). For the same molecule, the GI50 (NCI-H23) was 213 nM (active), the GI50 (SF-295) was 513 nM (active) and the GI50 (IGROV-1) was 112 nM (active). For the same molecule, the GI50 (Hs-578T) was 411 nM (active), the GI50 (OVCAR-3) was 302 nM (active) and the GI50 (CCRF-CEM) was 740 nM (active). For the same molecule, the GI50 (MCF7) was 478 nM (active), the GI50 (HOP-92) was 252 nM (active) and the GI50 (DU-145) was 344 nM (active). For the same molecule, the GI50 (A549) was 360 nM (active), the GI50 (HCT-15) was 288 nM and the GI50 (SNB-19) was 1230 nM (inactive). The GI50 (SW-620) was 306 nM (active), the GI50 (HCC 2998) was 284 nM (active) and the GI50 (SNB-75) was 242 nM (active). For the same molecule, the GI50 (SK-OV-3) was 86.9 nM (active), the GI50 (U-251) was 355 nM (active) and the GI50 (NCI-H460) was 191 nM (active). For the same molecule, the GI50 (T47D) was 340 nM (active), the GI50 (OVCAR-4) was 454 nM (active) and the GI50 (CAKI-1) was 541 nM (active). For the same molecule, the GI50 (OVCAR-5) was 405 nM (active), the GI50 (OVCAR-8) was 331 nM (active) and the GI50 (MDA-N) was 367 nM (active). For the same molecule, the GI50 (TK-10) was 378 nM (active), the GI50 (ACHN) was 299 nM (active) and the GI50 (LOX IMVI) was 275 nM (active). For the same molecule, the GI50 (MDA-MB-435) was 366 nM (active), the GI50 (NCI/ADR-RES) was 514 nM (active) and the GI50 (UO-31) was 199 nM (active). For the same molecule, the GI50 (NCI-H226) was 582 nM (active), the GI50 (SF-539) was 530 nM (active) and the GI50 (SN12C) was 440 nM (active). The GI50 (SF-268) was 533 nM (active), the GI50 (MDA-MB-231) was 484 nM (active) and the GI50 (HT-29) was 119 nM (active). The GI50 (UACC-62) was 73.3 nM (active), the GI50 (K562) was 367 nM (active) and the GI50 (M14) was 371 nM (active). For the same molecule, the GI50 (786-0) was 130 nM (active), the GI50 (PC-3) was 351 nM (active) and the GI50 (SK-MEL-5) was 187 nM (active). The GI50 (EKVX) was 441 nM (active).

From ChEMBL document CHEMBL1201862, “PubChem BioAssay data set” (2004)
